Source: the NIST ThermoML archive (doi:10.1021/acs.jced.6b00460)
Numbers after ± are expanded uncertainties.

Test: xn = mol fraction of the nth substance listed
Settings: 101 kPa, Liquid; for speed of sound: Sing-around technique in a fixed-path interferometer; for mass density: Vibrating tube method

CCCCCCCC[n+]1ccccc1.[Br-] [1-octylpyridinium bromide] + O
Settings | mass density, 308.15 K [kg/m3] | mass density, 318.15 K [kg/m3] | speed of sound, 308.15 K [m/s] | speed of sound, 318.15 K [m/s]
x2 = 0.0524 | 1167.92 ± 2.2 | 1161.5 ± 2.2 | 1507.5 ± 2.6 | 1479.5 ± 2.6
x2 = 0.1125 | 1167.75 ± 2.2 | 1161.26 ± 2.2 | 1508.2 ± 2.5 | 1481.4 ± 2.5
x2 = 0.2085 | 1167.44 ± 2.1 | 1160.87 ± 2.1 | 1509.1 ± 2.4 | 1483.4 ± 2.4
x2 = 0.2612 | 1167.11 ± 2.1 | 1160.51 ± 2.1 | 1509.6 ± 2.3 | 1485 ± 2.3
x2 = 0.3065 | 1166.66 ± 2.1 | 1160.04 ± 2.1 | 1510.1 ± 2.3 | 1486.3 ± 2.3
x2 = 0.4098 | 1164.79 ± 2.1 | 1158.11 ± 2.1 | 1511.2 ± 2.1 | 1489.1 ± 2.1
x2 = 0.4611 | 1163.24 ± 2 | 1156.52 ± 2 | 1511.8 ± 2.1 | 1490.4 ± 2.1
x2 = 0.5075 | 1161.35 ± 2 | 1154.59 ± 2 | 1512.2 ± 2.1 | 1492 ± 2
x2 = 0.6091 | 1155.07 ± 2 | 1148.2 ± 2 | 1513.8 ± 2 | 1494.8 ± 2
x2 = 0.6541 | 1151.03 ± 2 | 1144.1 ± 2 | 1514.5 ± 1.9 | 1497.2 ± 1.9
x2 = 0.7031 | 1145.4 ± 2 | 1138.43 ± 2 | 1515.1 ± 1.9 | 1502.2 ± 1.9
x2 = 0.7485 | 1138.7 ± 2 | 1131.69 ± 2 | 1516 ± 1.9 | 1506.7 ± 1.9
x2 = 0.8065 | 1127.15 ± 2 | 1120.15 ± 2 | 1516.8 ± 1.8 | 1512.5 ± 1.8
x2 = 0.8545 | 1113.64 ± 2 | 1106.77 ± 2 | 1517.5 ± 1.8 | 1518 ± 1.8
x2 = 0.9065 | 1091.9 ± 2 | 1085.37 ± 2 | 1518.2 ± 1.8 | 1523.5 ± 1.8
x2 = 0.9503 | 1062.05 ± 2 | 1056.24 ± 2 | 1518.8 ± 1.8 | 1529.3 ± 1.8

CCCCCC[n+]1ccc(C)cc1.[Br-] [1-hexyl-4-methylpyridinium bromide] + O
Settings | mass density, 308.15 K [kg/m3] | mass density, 318.15 K [kg/m3] | speed of sound, 308.15 K [m/s] | speed of sound, 318.15 K [m/s]
x2 = 0.0528 | 1214.12 ± 2.3 | 1207.39 ± 2.3 | 1586.8 ± 2.6 | 1557.9 ± 2.6
x2 = 0.1126 | 1213.44 ± 2.2 | 1206.62 ± 2.2 | 1583.6 ± 2.5 | 1557 ± 2.5
x2 = 0.2082 | 1211.69 ± 2.2 | 1204.8 ± 2.2 | 1579.1 ± 2.4 | 1555.2 ± 2.4
x2 = 0.2609 | 1210.34 ± 2.1 | 1203.43 ± 2.1 | 1575.7 ± 2.3 | 1554.2 ± 2.3
x2 = 0.3062 | 1208.9 ± 2.1 | 1202.01 ± 2.1 | 1573.2 ± 2.3 | 1553.2 ± 2.3
x2 = 0.4101 | 1204.56 ± 2.1 | 1197.72 ± 2.1 | 1568.4 ± 2.2 | 1551.7 ± 2.2
x2 = 0.4609 | 1201.71 ± 2.1 | 1194.91 ± 2 | 1565.3 ± 2.1 | 1550.7 ± 2.1
x2 = 0.5077 | 1198.65 ± 2 | 1191.88 ± 2 | 1563 ± 2.1 | 1549.8 ± 2.1
x2 = 0.6089 | 1189.79 ± 2 | 1183.07 ± 2 | 1557.2 ± 2 | 1547.7 ± 2
x2 = 0.6539 | 1184.57 ± 2 | 1177.87 ± 2 | 1553.3 ± 1.9 | 1546 ± 1.9
x2 = 0.7029 | 1177.58 ± 2 | 1170.89 ± 2 | 1547.7 ± 1.9 | 1544.7 ± 1.9
x2 = 0.7484 | 1169.44 ± 2 | 1162.78 ± 2 | 1542.9 ± 1.9 | 1543.5 ± 1.9
x2 = 0.8066 | 1155.56 ± 2 | 1148.97 ± 2 | 1537.6 ± 1.8 | 1542 ± 1.8
x2 = 0.8545 | 1139.33 ± 2 | 1132.88 ± 2 | 1533.7 ± 1.8 | 1540.5 ± 1.8
x2 = 0.9066 | 1112.82 ± 2 | 1106.74 ± 2 | 1529.4 ± 1.8 | 1539.1 ± 1.8
x2 = 0.9502 | 1076.22 ± 2 | 1070.75 ± 2 | 1524.9 ± 1.8 | 1537.8 ± 1.8

CCCCCCCC[n+]1ccc(C)cc1.[Cl-] [4-methyl-1-octylpyridinium chloride] + O
Settings | mass density, 308.15 K [kg/m3] | mass density, 318.15 K [kg/m3] | speed of sound, 308.15 K [m/s] | speed of sound, 318.15 K [m/s]
x2 = 0.0612 | 1107.62 ± 2.2 | 1101.69 ± 2.2 | 1448.6 ± 2.6 | 1417.4 ± 2.6
x2 = 0.1098 | 1107.56 ± 2.2 | 1101.55 ± 2.1 | 1452 ± 2.5 | 1421.5 ± 2.5
x2 = 0.2054 | 1107.52 ± 2.1 | 1101.39 ± 2.1 | 1457.5 ± 2.4 | 1430.4 ± 2.4
x2 = 0.2476 | 1107.46 ± 2.1 | 1101.31 ± 2.1 | 1459.9 ± 2.3 | 1435.3 ± 2.3
x2 = 0.3088 | 1107.3 ± 2.1 | 1101.1 ± 2.1 | 1463.2 ± 2.3 | 1439.9 ± 2.3
x2 = 0.4187 | 1106.44 ± 2 | 1100.18 ± 2 | 1468.7 ± 2.1 | 1451.7 ± 2.1
x2 = 0.4521 | 1105.97 ± 2 | 1099.68 ± 2 | 1472.2 ± 2.1 | 1454.6 ± 2.1
x2 = 0.5065 | 1104.89 ± 2 | 1098.57 ± 2 | 1475.1 ± 2 | 1461.8 ± 2
x2 = 0.6021 | 1101.75 ± 2 | 1095.32 ± 2 | 1483.4 ± 2 | 1475 ± 2
x2 = 0.6532 | 1099.16 ± 2 | 1092.65 ± 2 | 1487.9 ± 1.9 | 1482.3 ± 1.9
x2 = 0.7042 | 1095.66 ± 2 | 1089.07 ± 2 | 1492.5 ± 1.9 | 1490.3 ± 1.9
x2 = 0.7565 | 1090.74 ± 2 | 1084.09 ± 2 | 1497.2 ± 1.9 | 1498.6 ± 1.9
x2 = 0.8029 | 1084.75 ± 2 | 1078.06 ± 2 | 1501.7 ± 1.8 | 1506.7 ± 1.8
x2 = 0.8577 | 1074.57 ± 2 | 1067.97 ± 2 | 1505.2 ± 1.8 | 1513.6 ± 1.8
x2 = 0.9035 | 1061.61 ± 2 | 1055.25 ± 2 | 1510.4 ± 1.8 | 1521.1 ± 1.8
x2 = 0.9511 | 1039.58 ± 2 | 1033.92 ± 2 | 1514.3 ± 1.8 | 1528.4 ± 1.8
